The values below come from US9315503B2, “Kinase inhibitors” (CHIESI FARMACEUTICI S.p.A., priority 2011, dated 2016).

The target of assay [1] is T1, p38alpha (Homo sapiens, UniProt Q16539).
T1 construct: purchased Invitrogen PV3304
In words: P38Alpha enzyme inhibition assay (Alphascreen kinase activity assay). The assay is classed as biochemical. The settings on record: 100 pM p38alpha, 250 μM ATP, 2 hours pre-incubation at 25° C., read-out: p38α inhibition (IC50 values). An outline of the steps: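 p38α (100 pM) with ATF-2 fusion protein substrate (0.3 µg/ml) in pH 7.5 HEPES/MgCl2 buffer, 1% DMSO, preincubated 2 h at 25°C with compound. Reaction started with 250 µM ATP, ran 1 h at 25°C, then stopped with EDTA. Phospho-ATF2 antibody detected by AlphaScreen luminescence; IC50 from concentration-response curves.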
Background: Alpha assays give light when donor and acceptor beads are brought close together.

For assay [2], the system named is LPS-stimulated TNFα release from PBMCs. In words: LPS-stimulated PBMC TNFα release assay. The class given is cell-based. Particulars: inhibition of TNFα release, human PBMCs, LPS 10 ng/ml, 18 h, ELISA, read-out: p38α inhibition (IC50 values). The gist of the method:
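Healthy-donor human PBMCs, density-gradient isolated, preincubated 1 h at 37 °C with compound in 1% FBS RPMI 1640, then stimulated with LPS (10 ng/ml) for 18 h. Supernatant TNFα by ELISA; IC50 from dose-response of % inhibition of control release, n≥3 experiments.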
For orientation: An ELISA detects its analyte on a solid surface through an enzyme-linked reagent.

Where a name gives a salt, the structure may show the parent alone.

T1 sequence (Q16539 whole entry): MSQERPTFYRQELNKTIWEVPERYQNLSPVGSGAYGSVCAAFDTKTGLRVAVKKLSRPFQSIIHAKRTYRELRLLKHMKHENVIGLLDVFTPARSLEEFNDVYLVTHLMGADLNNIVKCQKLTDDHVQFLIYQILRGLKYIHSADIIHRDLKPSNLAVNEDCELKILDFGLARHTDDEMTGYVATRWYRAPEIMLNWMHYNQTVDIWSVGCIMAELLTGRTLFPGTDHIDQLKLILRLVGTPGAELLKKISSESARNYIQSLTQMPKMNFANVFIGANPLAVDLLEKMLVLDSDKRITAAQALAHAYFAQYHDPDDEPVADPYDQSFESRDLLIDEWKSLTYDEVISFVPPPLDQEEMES

By IC50 is commonly meant the midpoint of a concentration-inhibition curve. Regarding `Cc1ccc(-n2nc(C(C)(C)C)cc2NC(=O)N[C@H]2CC[C@@H](Oc3ccc4nnc(N5CCC(CCO)CC5)n4c3)c3ccccc32)cc1` [Example 66, 1-(5-tert-Butyl-2-p-tolyl-2H-pyrazol-3-yl)-3-{(1S,4R)-4-[3-(4-hydroxyethyl-piperidin-1-yl)-[1,2,4]triazolo[4,3-a]pyridin-6-yloxy]-1,2,3,4-tetrahydro-naphthalen-1-yl}-urea], the IC50 in assay [1] and in assay [2] was under 10 nM in each case.
Regarding `Cc1ccc(-n2nc(C(C)(C)C)cc2NC(=O)N[C@H]2CC[C@@H](Oc3ccc4nnc(N5CCCCCC5)n4c3)c3ccccc32)cc1` [Example 67, 1-[(1S,4R)-4-(3-Azepan-1-yl-[1,2,4]triazolo[4,3-a]pyridin-6-yloxy)-1,2,3,4-tetrahydro-naphthalen-1-yl]-3-(5-tert-butyl-2-p-tolyl-2H-pyrazol-3-yl)-urea], the IC50 in assay [1] and in assay [2] was under 10 nM in each case.
As to `Cc1ccc(-n2nc(C(C)(C)C)cc2NC(=O)N[C@H]2CC[C@@H](Oc3ccc4nnc(N5CCN(C)CC5)n4c3)c3ccccc32)cc1` [Example 68, 1-(5-tert-Butyl-2-p-tolyl-2H-pyrazol-3-yl)-3-{(1S,4R)-4-[3-(4-methyl-piperazin-1-yl)-[1,2,4]triazolo[4,3-a]pyridin-6-yloxy]-1,2,3,4-tetrahydro-naphthalen-1-yl}-urea], the half-inhibitory concentration (IC50) in assay [1] and in assay [2] was under 10 nM throughout.
For `Cc1ccc(-n2nc(C(C)(C)C)cc2NC(=O)N[C@H]2CC[C@@H](Oc3ccc4nnc(N5CCCN(C)CC5)n4c3)c3ccccc32)cc1` [Example 69, 1-(5-tert-Butyl-2-p-tolyl-2H-pyrazol-3-yl)-3-{(1S,4R)-4-[3-(4-methyl-[1,4]diazepan-1-yl)-[1,2,4]triazolo[4,3-a]pyridin-6-yloxy]-1,2,3,4-tetrahydro-naphthalen-1-yl}urea], the IC50 in assay [1] and in assay [2] was under 10 nM each time.
On to `CC(C)(C)c1cc(NC(=O)N[C@H]2CC[C@@H](Oc3ccc4nnc(N5CCCCC5)n4c3)c3ccccc32)n(-c2ccc(O)cc2)n1` [Example 70, 1-[5-tert-Butyl-2-(4-hydroxy-phenyl)-2H-pyrazol-3-yl]-3-[(1S,4R)-4-(3-piperidin-1-yl-[1,2,4]triazolo[4,3-a]pyridin-6-yloxy)-1,2,3,4-tetrahydro-naphthalen-1-yl]-urea], for which the IC50 in assay [1] and in assay [2] was under 10 nM each time.
For the compound `CC(C)(C)c1cc(NC(=O)N[C@H]2CC[C@@H](Oc3ccc4nnc(N5CCCCC5)n4c3)c3ccccc32)n(-c2ccc(C#N)cc2)n1` [Example 71, 1-[5-tert-Butyl-2-(4-cyano-phenyl)-2H-pyrazol-3-yl]-3-[(1S,4R)-4-(3-piperidin-1-yl-[1,2,4]triazolo[4,3-a]pyridin-6-yloxy)-1,2,3,4-tetrahydro-naphthalen-1-yl]-urea], the IC50 in assay [1] and in assay [2] was under 10 nM in each case.
Take `Cc1ccc(-n2nc(C(C)(C)C)cc2NC(=O)N[C@H]2CC[C@H](Oc3ccc4nnc([C@@H]5CCCN5C)n4c3)c3ccccc32)cc1` [Example 72, 1-(5-tert-Butyl-2-p-tolyl-2H-pyrazol-3-yl)-3-{(1S,4S)-4-[3-((S)-1-methyl-pyrrolidin-2-yl)-[1,2,4]triazolo[4,3-a]pyridin-6-yloxy]-1,2,3,4-tetrahydro-naphthalen-1-yl}-urea]: the IC50 in assay [1] and in assay [2] was under 10 nM throughout.
With `CN1CCC[C@H]1c1nnc2ccc(O[C@@H]3CC[C@H](NC(=O)Nc4cc(C(C)(C)C)nn4-c4ccc(O)cc4)c4ccccc43)cn12` [Example 73, 1-[5-tert-Butyl-2-(4-hydroxy-phenyl)-2H-pyrazol-3-yl]-3-{(1S,4R)-4-[3-((S)-1-methyl-pyrrolidin-2-yl)-[1,2,4]triazolo[4,3-a]pyridin-6-yloxy]-1,2,3,4-tetrahydro-naphthalen-1-yl}-urea], the IC50 in assay [1] and in assay [2] was under 10 nM throughout.
Turning to `Cc1ccc(-n2nc(C(C)(C)C)cc2NC(=O)N[C@H]2CC[C@@H](Oc3ccc4nnc(N5CCC(C(C)(C)O)CC5)n4c3)c3ccccc32)cc1` [Example 74, 1-(5-tert-Butyl-2-p-tolyl-2H-pyrazol-3-yl)-3-((1S,4R)-4-{3-[4-(1-hydroxy-1-methyl-ethyl)-piperidin-1-yl]-[1,2,4]triazolo[4,3-a]pyridin-6-yloxy}-1,2,3,4-tetrahydro-naphthalen-1-yl)-urea], the IC50 in assay [1] and in assay [2] was under 10 nM throughout.
Take `Cc1ccc(-n2nc(C(C)(C)C)cc2NC(=O)N[C@H]2CC[C@@H](Oc3ccc4nnc(N5CCCC5)n4c3)c3ccccc32)cc1` [Example 75, 1-(5-tert-Butyl-2-p-tolyl-2H-pyrazol-3-yl)-3-[(1S,4R)-4-(3-pyrrolidin-1-yl-[1,2,4]triazolo[4,3-a]pyridin-6-yloxy)-1,2,3,4-tetrahydro-naphthalen-1-yl]-urea]: the IC50 in assay [1] and in assay [2] was under 10 nM throughout.
Take `Cc1ccc(-n2nc(C(C)(C)C)cc2NC(=O)N[C@H]2CC[C@@H](Oc3ccc4nnc(C(C)(C)N(C)C)n4c3)c3ccccc32)cc1` [Example 76, 1-(5-tert-Butyl-2-p-tolyl-2H-pyrazol-3-yl)-3-{(1S,4R)-4-[3-(1-dimethylamino-1-methyl-ethyl)-[1,2,4]triazolo[4,3-a]pyridin-6-yloxy]-1,2,3,4-tetrahydro-naphthalen-1-yl}-urea partial formate salt]: the IC50 in assay [1] and in assay [2] was under 10 nM in each case.
As for `Cc1ccc(-n2nc(C(C)(C)C)cc2NC(=O)N[C@H]2CC[C@@H](Oc3ccc4nnc(N5CCC[C@@H](CO)C5)n4c3)c3ccccc32)cc1` [Example 77, 1-(5-tert-Butyl-2-p-tolyl-2H-pyrazol-3-yl)-3-{(1S,4R)-4-[3-((R)-3-hydroxymethyl-piperidin-1-yl)-[1,2,4]triazolo[4,3-a]pyridin-6-yloxy]-1,2,3,4-tetrahydro-naphthalen-1-yl}-urea], the IC50 in assay [1] and in assay [2] was under 10 nM in each case.
On to `Cc1ccc(-n2nc(C(C)(C)C)cc2NC(=O)N[C@H]2CC[C@@H](Oc3ccc4nnc(N5CCC[C@H](CO)C5)n4c3)c3ccccc32)cc1` [Example 78, 1-(5-tert-Butyl-2-p-tolyl-2H-pyrazol-3-yl)-3-{(1S,4R)-4-[3-((S)-3-hydroxymethyl-piperidin-1-yl)-[1,2,4]triazolo[4,3-a]pyridin-6-yloxy]-1,2,3,4-tetrahydro-naphthalen-1-yl}-urea], for which the 50% inhibitory concentration (IC50) in assay [1] and in assay [2] was under 10 nM each time.
Consider `Cc1ccc(-n2nc(C(C)(C)C)cc2NC(=O)N[C@H]2CC[C@@H](Oc3ccc4nnc(N5CCC(C)(O)CC5)n4c3)c3ccccc32)cc1` [Example 79, 1-(5-tert-Butyl-2-p-tolyl-2H-pyrazol-3-yl)-3-{(1S,4R)-4-[3-(4-hydroxy-4-methyl-piperidin-1-yl)-[1,2,4]triazolo[4,3-a]pyridin-6-yloxy]-1,2,3,4-tetrahydro-naphthalen-1-yl}-urea], for which the IC50 in assay [1] and in assay [2] was under 10 nM in each case.
Take `Cc1ccc(-n2nc(C(C)(C)C)cc2NC(=O)N[C@H]2CC[C@@H](Oc3ccc4nnc(C(C)(C)N5CCCC5)n4c3)c3ccccc32)cc1` [Example 80, 1-(5-tert-Butyl-2-p-tolyl-2H-pyrazol-3-yl)-3-{(1S,4R)-4-[3-(1-methyl-1-pyrrolidin-1-yl-ethyl)-[1,2,4]triazolo[4,3-a]pyridin-6-yloxy]-1,2,3,4-tetrahydro-naphthalen-1-yl}-urea]: the IC50 in assay [1] and in assay [2] was under 10 nM each time.
Turning to `Cc1ccc(-n2nc(C(C)(C)C)cc2NC(=O)N[C@H]2CC[C@@H](Oc3ccc4nnc(N5CCCC[C@@H]5C)n4c3)c3ccccc32)cc1` [Example 81, 1-(5-tert-Butyl-2-p-tolyl-2H-pyrazol-3-yl)-3-{(1S,4R)-4-[3-((S)-2-methyl-piperidin-1-yl)-[1,2,4]triazolo[4,3-a]pyridin-6-yloxy]-1,2,3,4-tetrahydro-naphthalen-1-yl}-urea], the IC50 in assay [1] and in assay [2] was under 10 nM in each case.
For `Cc1ccc(-n2nc(C(C)(C)C)cc2NC(=O)N[C@H]2CC[C@@H](Oc3ccc4nnc(N5CCCC[C@H]5C)n4c3)c3ccccc32)cc1` [Example 82, 1-(5-tert-Butyl-2-p-tolyl-2H-pyrazol-3-yl)-3-{(1S,4R)-4-[3-((R)-2-methyl-piperidin-1-yl)-[1,2,4]triazolo[4,3-a]pyridin-6-yloxy]-1,2,3,4-tetrahydro-naphthalen-1-yl}-urea], the IC50 in assay [1] and in assay [2] was under 10 nM throughout.
As to `Cc1ccc(-n2nc(C(C)(C)C)cc2NC(=O)N[C@H]2CC[C@@H](Oc3ccc4nnc([C@H]5COCCN5C)n4c3)c3ccccc32)cc1` [Example 83, 1-(5-tert-Butyl-2-p-tolyl-2H-pyrazol-3-yl)-3-{(1S,4R)-4-[3-((S)-4-methyl-morpholin-3-yl)-[1,2,4]triazolo[4,3-a]pyridin-6-yloxy]-1,2,3,4-tetrahydro-naphthalen-1-yl}-urea, partial formate salt], the IC50 in assay [1] and in assay [2] was under 10 nM throughout.
In the case of `Cc1ccc(-n2nc(C(C)(C)C)cc2NC(=O)N[C@H]2CC[C@@H](Oc3ccc4nnc([C@@H]5CCCN5CCCO)n4c3)c3ccccc32)cc1` [Example 84, 1-(5-tert-Butyl-2-p-tolyl-2H-pyrazol-3-yl)-3-((1S,4R)-4-{3-[(S)-1-(3-hydroxy-propyl)-pyrrolidin-2-yl]-[1,2,4]triazolo[4,3-a]pyridin-6-yloxy}-1,2,3,4-tetrahydro-naphthalen-1-yl)-urea], the IC50 in assay [1] and in assay [2] was under 10 nM in each case.
